Test results: paper PMC11209699 (ACS Omega, 2024)
Several values for one entry are separate records, joined by “and”; a condition that tells them apart may be missing. Equal entries are not always repeated. Entries after “also recorded” stand apart in the source; their conditions may differ.

How the values were obtained:
BCL-2 = BCL-2 (Homo sapiens, UniProt P10415); assay: fluorescence polarization; conditions: FP assay
MCL-1 = MCL-1 (Homo sapiens, UniProt Q07820); assay: fluorescence polarization; conditions: for binding to MCL-1 (in words): tested up to 100 μM
RS4;11 cells = assay: CCK-8 cell viability; format: cell-based; conditions: Homo sapiens, RS4-11, 48 h, read-out: cytotoxicity (IC50) RS4;11
CCK-8 cell viability = format: cell-based; conditions: human, HEK293T cells
MV-4–11 cells [1] = assay: CCK-8 cell viability; format: cell-based; conditions: Homo sapiens, MV4-11, 48 h, read-out: cytotoxicity (IC50) MV-4–11
H929 cells = assay: CCK-8 cell viability; format: cell-based; conditions: Homo sapiens, NCI-H929, 48 h, read-out: cytotoxicity (IC50) H929
HeLa cells = assay: CCK-8 cell viability; format: cell-based; conditions: Homo sapiens, 48 h, read-out: cytotoxicity (IC50) HeLa
HL-60 cells = assay: CCK-8 cell viability; format: cell-based; conditions: Homo sapiens, HL-60, 48 h, read-out: cytotoxicity (IC50) HL-60
BCL-xL = BCL-xL (Homo sapiens, UniProt Q07817); assay: fluorescence polarization; conditions: FP assay, tested up to 100 μM
MV-4–11 cells [2] = assay: kinetics study in cells; format: in vitro ADME; conditions: GQN-B37-Me given to MV-4–11 cells at 40 μM, monitored over 8 h
MV-4–11 cells [3] = assay: annexin V and PI double-staining flow cytometry; format: cell-based; conditions: 24 h
MV-4–11 xenograft mice [4] = assay: in vivo antitumor study, MV-4–11 xenograft mouse model; conditions: for effect on body weight after 20 days (in words): 90% confidence level vs vehicle
stability in GSH = format: in vitro ADME; conditions: exposure to GSH for up to 2 h
[5] = stability in liver microsomes; format: in vitro ADME; conditions: monkey, pooled monkey liver microsomes
[6] = system: PARP and caspase-3 in H929 cells; assay: Western blot of PARP and caspase-3 cleavage; format: cell-based; conditions: 5 to 40 μM, 24 h
[7] = stability in liver microsomes; format: in vitro ADME; conditions: dog, pooled dog liver microsomes
[8] = stability in liver microsomes; format: in vitro ADME; conditions: human
MV-4–11 xenograft mice [9] = format: in vivo, mouse; conditions: after 20 days treatment
[10] = stability in liver microsomes; format: in vitro ADME; conditions: rat, pooled rat liver microsomes
[11] = biological target: MCL-1/BIM interaction in H929 cells (Homo sapiens, UniProt Q07820); assay: coimmunoprecipitation; format: cell-based; conditions: 10 μM, 10 h
MCL-1/BIM interaction in H929 cells, sequence (Q07820 whole entry): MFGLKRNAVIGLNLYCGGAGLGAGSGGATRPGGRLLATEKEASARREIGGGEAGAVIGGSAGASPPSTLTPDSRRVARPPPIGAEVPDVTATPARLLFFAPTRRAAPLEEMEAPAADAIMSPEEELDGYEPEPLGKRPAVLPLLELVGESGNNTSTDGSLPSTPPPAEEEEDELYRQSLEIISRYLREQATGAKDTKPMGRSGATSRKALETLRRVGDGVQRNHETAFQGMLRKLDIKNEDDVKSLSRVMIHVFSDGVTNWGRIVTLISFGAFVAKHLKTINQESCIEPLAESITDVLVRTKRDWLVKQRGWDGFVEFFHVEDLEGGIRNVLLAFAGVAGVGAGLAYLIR

BCL-2, sequence (P10415 1-207): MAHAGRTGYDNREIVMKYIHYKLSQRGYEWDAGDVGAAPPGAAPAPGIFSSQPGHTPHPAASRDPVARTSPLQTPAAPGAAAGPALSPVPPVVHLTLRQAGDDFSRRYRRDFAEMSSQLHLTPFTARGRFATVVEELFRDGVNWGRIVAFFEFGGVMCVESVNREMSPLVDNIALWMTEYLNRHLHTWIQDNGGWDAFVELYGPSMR
MCL-1, sequence (Q07820 152-327): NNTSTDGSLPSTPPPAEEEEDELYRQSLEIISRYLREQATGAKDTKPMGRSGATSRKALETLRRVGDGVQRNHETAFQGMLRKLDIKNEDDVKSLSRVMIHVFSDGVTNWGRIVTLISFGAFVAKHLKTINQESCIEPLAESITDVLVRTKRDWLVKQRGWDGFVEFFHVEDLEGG
BCL-xL, sequence (Q07817 45-233): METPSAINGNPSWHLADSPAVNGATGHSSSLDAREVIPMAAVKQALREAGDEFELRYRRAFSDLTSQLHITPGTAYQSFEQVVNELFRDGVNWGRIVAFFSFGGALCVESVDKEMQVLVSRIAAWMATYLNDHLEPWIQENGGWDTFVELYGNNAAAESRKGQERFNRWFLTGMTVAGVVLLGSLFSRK

Row | Structure (SMILES) | IC50 (RS4;11 cells) [µM] | IC50 at 48 h (CCK-8 cell viability) [µM] | IC50 (MV-4–11 cells [1]) [µM] | IC50 (H929 cells) [µM] | IC50 (HeLa cells) [µM] | IC50 (HL-60 cells) [µM] | other results
1 | O=C(/C=C\c1cn(-c2ccccc2)nc1-c1ccc2ccccc2c1)Nc1ccc(C(=O)O)cc1 [LC126, (Z)-4-(3-(3-(Naphthalen-2-yl)-1-phenyl-1H-pyrazol-4-yl)acrylamido)benzoic Acid] | – | – | – | – | – | – | Ki (BCL-2; Ki for BCL-2 (text and Figure 2)): 10 µM and ~10 µM; Ki (MCL-1; Ki for MCL-1 (text and Figure 2), FP assay): 13 µM and ~10 µM
2 | COC(=O)[C@H](Cc1c[nH]c2ccccc12)NC(=O)/C=C/c1cn(-c2cccc(Cl)c2)nc1-c1ccc(N)cc1 [GQN-B35-Me, Methyl-(E)-(3-(3-(4-aminophenyl)-1-(3-chlorophenyl)-1H-pyrazol-4-yl)acryloyl)-L-tryptophanate] | > 20 | > 20 | 20.52 ± 0.12 | 3.89 ± 0.07 | > 50 | > 20 | –
3 | O=C(/C=C/c1cn(-c2cccc(Cl)c2)nc1-c1ccc(O)cc1)N[C@@H](Cc1c[nH]c2ccccc12)C(=O)O [GQN-B37-E, (E)-(3-(1-(3-Chlorophenyl)-3-(4-hydroxyphenyl)-1H-pyrazol-4-yl)acryloyl)-L-tryptophan] | > 50 | > 20 | > 50 | > 50 | > 50 | > 50 | binding to BCL-XL (in words) (BCL-xL): without apparent binding; binding to BCL-2 (in words) (BCL-2; tested up to 100 μM): without apparent binding; ligand efficiency (LE) (MCL-1; binding energy divided by the number of heavy atoms, MCL-1): 0.22 kcal/mol; time at which intracellular GQN-B37-E reached a peak (MV-4–11 cells [2]): 3 h
4 | COC(=O)[C@H](Cc1c[nH]c2ccccc12)NC(=O)/C=C/c1cn(-c2cccc(Cl)c2)nc1-c1ccc(C2CCCCC2)cc1 [GQN-B33-Me, Methyl-(E)-(3-(1-(3-chlorophenyl)-3-(4-cyclohexylphenyl)-1H-pyrazol-4-yl)acryloyl)-L-tryptophanate] | > 20 | > 20 | > 20 | 4.64 ± 0.01 | > 50 | > 50 | –
5 | COC(=O)[C@H](Cc1c[nH]c2ccccc12)NC(=O)/C=C/c1cn(-c2cccc(Cl)c2)nc1-c1ccc(O)cc1 [GQN-B37-Me, Methyl-(E)-(3-(1-(3-chlorophenyl)-3-(4-hydroxyphenyl)-1H-pyrazol-4-yl)acryloyl)-L-tryptophanate] | 15.9 ± 0.98 | > 20 | 5.57 ± 0.09 | 3.71 ± 0.33 | > 20 | > 20 | induction of late apoptosis (in words) (MV-4–11 cells [3]; doses ranging from 1 to 40 μM): induced late apoptosis in a clear dose-dependent manner; tumor growth inhibition on day 20 (MV-4–11 xenograft mice [4]; 12.5 mg/kg i.p. every 2 days for 20 days): 30%; effect on body weight after 20 days (in words) (MV-4–11 xenograft mice [4]; 12.5 mg/kg i.p. every 2 days): did not cause significant body weight loss; tumor growth inhibition on day 20 (MV-4–11 xenograft mice [4]; 50 mg/kg i.p. every 2 days for 20 days): 43%; effect on body weight after 20 days (in words) (MV-4–11 xenograft mice [4]; 50 mg/kg i.p. every 2 days): affected body weight; stability following incubation with GSH (in words) (stability in GSH): basically intact; half-life at 1.4 μM [5]: 34.8 min; cleavage of full-length PARP (116 to 89 kDa) [6]: dose-dependent cleavage; half-life at 1.4 μM [7]: 116 min; half-life at 1.4 μM [8]: 46.2 min; binding to MCL-1 (in words) (MCL-1; FP assay): complete loss of binding; lesions in liver, kidney and heart (HE staining) (MV-4–11 xenograft mice [9]; 12.5 and 50 mg/kg): no evidence of lesions; necrosis of tumor tissues (HE staining) (MV-4–11 xenograft mice [9]; 12.5 and 50 mg/kg): dose-dependent necrosis of tumor tissues; level of proliferation in tumor tissues (Ki-67) (MV-4–11 xenograft mice [9]; compared to the blank group): significantly reduced; half-life at 1.4 μM [10]: 115 min; disruption of the MCL-1/BIM interaction [11]: disrupts the MCL-1/BIM interaction considerably
6 | COC(=O)[C@H](Cc1c[nH]c2ccccc12)NC(=O)/C=C/c1cn(-c2cccc(Cl)c2)nc1-c1ccc(N2CCOCC2)cc1 [GQN-B36-Me, Methyl-(E)-(3-(1-(3-chlorophenyl)-3-(4-morpholinophenyl)-1H-pyrazol-4-yl)acryloyl)-L-tryptophanate] | > 20 | > 20 | > 20 | > 20 | > 50 | > 20 | –
7 | O=C(/C=C/c1cn(-c2cccc(Cl)c2)nc1-c1ccc(C2CCCCC2)cc1)N[C@@H](Cc1c[nH]c2ccccc12)C(=O)O [GQN-B33-E, (E)-(3-(1-(3-Chlorophenyl)-3-(4-cyclohexylphenyl)-1H-pyrazol-4-yl)acryloyl)-L-tryptophan] | > 20 | > 20 | > 20 | > 50 | > 50 | > 50 | –
8 | O=C(/C=C/c1cn(-c2ccccc2)nc1-c1ccc2ccccc2c1)N[C@@H](Cc1c[nH]c2ccccc12)C(=O)O [GQN-B18-E, (E)-(3-(3-(Naphthalen-2-yl)-1-phenyl-1H-pyrazol-4-yl)acryloyl)-L-tryptophan] | > 20 | > 20 | > 50 | > 50 | > 50 | > 20 | –
9 | Cc1c2c(nn1C)CSCc1cc(n(C)n1)CSc1cc(c3ccccc3c1)OCCCc1c(C(=O)O)n(C)c3c-2c(Cl)ccc13 [AZD5991, reference compound] | – | > 20 | < 0.01 | 0.05 ± 0.01 | – | – | cells in quadrant Q3-2 (late apoptosis, annexin V (+) and PI (+)) (MV-4–11 cells [3]; 1 μM, MV-4–11 cells): ~75%; tumor growth inhibition on day 20 (MV-4–11 xenograft mice [4]; 10 mg/kg i.p. every 2 days for 20 days): 56%; effect on body weight after 20 days (in words) (MV-4–11 xenograft mice [4]; 10 mg/kg i.p. every 2 days): caused significant body weight loss
10 | O=C(/C=C/c1cn(-c2cccc(Cl)c2)nc1-c1ccc(N2CCOCC2)cc1)N[C@@H](Cc1c[nH]c2ccccc12)C(=O)O [GQN-B36-E, (E)-(3-(1-(3-Chlorophenyl)-3-(4-morpholinophenyl)-1H-pyrazol-4-yl)acryloyl)-L-tryptophan] | > 50 | > 20 | > 50 | > 50 | > 50 | > 50 | –
11 | CC1(C)CCC(CN2CCN(c3ccc(C(=O)NS(=O)(=O)c4ccc(NCC5CCOCC5)c([N+](=O)[O-])c4)c(Oc4cnc5[nH]ccc5c4)c3)CC2)=C(c2ccc(Cl)cc2)C1 [ABT-199, reference compound] | – | – | – | – | – | – | binding to MCL-1 (in words) (MCL-1; FP assay): no obvious binding
12 | COC(=O)[C@H](Cc1c[nH]c2ccccc12)NC(=O)/C=C/c1cn(-c2ccccc2)nc1-c1ccc2ccccc2c1 [GQN-B18-Me, Methyl-(E)-(3-(3-(naphthalen-2-yl)-1-phenyl-1H-pyrazol-4-yl)acryloyl)-L-tryptophanate] | > 20 | > 20 | > 20 | 7.97 ± 1.01 | > 20 | > 20 | binding to MCL-1 (in words) (MCL-1; FP assay): totally abolished; also recorded: complete loss of binding
13 | Nc1ccc(-c2nn(-c3cccc(Cl)c3)cc2/C=C/C(=O)N[C@@H](Cc2c[nH]c3ccccc23)C(=O)O)cc1 [GQN-B35-E, (E)-(3-(3-(4-Aminophenyl)-1-(3-chlorophenyl)-1H-pyrazol-4-yl)acryloyl)-L-tryptophan] | > 50 | > 20 | > 50 | > 50 | > 50 | > 50 | –
